pIC50: −log10 of the molar value. Like-named read-outs stand apart in the source and are kept apart here.
Legend:
RSV fusion (A2_F) = biological target: T1, RSV fusion (A2_F) (Human respiratory syncytial virus A, UniProt P03420); assay: RSV fusion assay (luciferase reporter, transfected HEK 293T/17 cells); format: cell-based
T1 construct: expressed in transfected cells; host or cells: HEK 293T/17
Experimental: HEK 293T/17 cells were cultured in T75 culture flasks in Dulbecco's medium containing 10% FBS and 1× Penicillin-Streptomycin and warmed to 37° C. prior to use. The cells were passaged by first washing briefly with 3 ml PBS followed by a 4 min incubation with […] at 37° C. 7 ml media was then added to the flask and the cells dispersed via pipetting (×3) against the bottom of the flask. Two further T75 flasks were each seeded with 2×10^6 cells in 15 ml fresh media.
Cells were seeded on the T75 plates at the same density as on the 6-well plates to the area of a T75 flask and one 1.75 cm radius well from a 6-well plate were compared. 7.79×2 ml of 3×10^5 cells ml^−1 was used to seed a single T75 flask.
HEK cells were removed from a T75 flask as described above. The cells were counted and diluted to 3×10^5 cells/ml in fresh media. Two T75 flasks were each seeded with 15.58 ml diluted cells.
The plasmid DNA (for pFR-Luc and pcDNA3.1_Gal4/NFκB) to be transfected into the HEK cells was first prepared in serum free media (DMEM+Pen/Strep) containing the transfection reagent Fugene 6 (Promega). Transfections were set up as follows (Luc=pFR_Luc, Gal4=pcDNA3.1+_Gal4/NFκB, A2_F=pcDNA3.1+_A2_F)
Serum free media was placed in a 1.5 ml eppendorf tube then the fugene 6 was added into the media. The tube was vortexed for 1 s before being incubated at RT for 5 min. The plasmid DNA was then added to the tube, vortexed for 1 s, then incubated at RT for 15 min
The transfection reagents were then added to the appropriate T75 flask by tipping the flask on end and adding the reagents directly to the media already in the flask. […]
Luminescence was measured at appropriate time points as follows:
Media was discarded into Virkon and the plates washed with 100 ul PBS per well. […] Add 100 μl working luciferin buffer to each well and luminescence was measured immediately.
Media was discarded into Virkon and 100 ul SFM+20 ul CellTitre-Blue solution was added to each well. […] Resorufin fluorescence was measured at 590 nm.

[1] = In vivo pharmacokinetics in rats (IV and PO); set-up: species or system male Sprague Dawley rats; conditions: rat; for Vd: 1 mg/kg (IV)
Experimental: The pharmacokinetics of compounds were studied in vivo in male Sprague Dawley rats at doses of 1 mg/kg (IV) and 10 mg/kg (PO).
Sprague Dawley rats were treated with experimental compounds via intravenous and oral administration. Three animals for each route of administration were used with serial blood sampling at ten time points post dosing of compound.
Animals were weighed and used if between 200-250 g. Serial blood samples were collected at 0.02, 0.08, 0.25, 0.50, 1, 2, 4, 6, 8 and 24 hours post dosing. […] Blood samples were delivered into an anticoagulant (sodium heparin) and centrifuged at 4° C. Plasma samples were subsequently stored frozen at less than −20° C. prior to analysis.
Following protein precipitation with acetonitrile, samples were analysed with tandem liquid chromatography/mass spectrometry using electrospray ionisation. A full matrix curve with internal standards was employed and PK parameters were calculated.
In a similar manner, oral administration was performed by gavage at doses of 5 or 10 mg/kg at a concentration of 5 mg/ml in 1% Methyl cellulose (Sigma M7140), 0.1% Tween 80 in water. Serial samples were taken as described above.
RV039 was administered at doses of 1 mg/kg (IV) and 5 mg/kg (PO).

[2] = Liver microsomal stability, human; format: in vitro ADME; conditions: both sexes, pH 7.4, human liver microsomes
Experimental: Microsomal Incubation: Experimental Procedure
Pooled human liver microsomes (pooled male and female), pooled rat liver microsomes (male Sprague Dawley rats) and pooled dog liver microsomes (male Beagle dog) are purchased from a reputable commercial supplier and stored at −80° C. prior to use.
Microsomes (final protein concentration 0.5 mg/mL), 0.1 M phosphate buffer pH 7.4 and test compound (final substrate concentration 3 μM; final DMSO concentration 0.25%) are pre-incubated at 37° C. prior to the addition of NADPH (final concentration 1 mM) to initiate the reaction. The final incubation volume is 50 μL. A control incubation is included for each compound tested where 0.1 M phosphate buffer pH 7.4 is added instead of NADPH (minus NADPH). Two control compounds are included with each species. All incubations are performed singularly for each test compound.
Compounds are incubated for 0, 5, 15, 30 and 45 min. The control (minus NADPH) is incubated for 45 min only. The reactions are stopped by transferring 25 μL of incubate to 50 μL methanol at the appropriate time points. The termination plates are centrifuged at 2,500 rpm for 20 min at 4° C. to precipitate the protein. Following protein precipitation, the sample supernatants are combined in cassettes of up to 4 compounds, internal standard is added and samples analysed by LC-MS/MS. From a plot of ln peak area ratio (compound peak area/internal standard peak area) against time, the gradient of the line is determined. Subsequently, half-life and intrinsic clearance are calculated

[3] = Plasma protein binding (equilibrium dialysis), human; format: in vitro ADME; conditions: plasma (100%), pH 7.4, read-out: PPB fraction unbound, human
Experimental: Protein Binding Determination: Experimental Procedure
Solutions of test compound (5 μM, 0.5% final DMSO concentration) are prepared in buffer (pH 7.4) and 100% species-specific plasma. The experiment is performed using equilibrium dialysis with the two compartments separated by a semi-permeable membrane. The buffer solution is added to one side of the membrane and the plasma solution to the other side. After equilibration, samples are taken from both sides of the membrane. Standards are prepared in plasma and buffer and are incubated at 37° C.
Test compound incubations are performed in duplicate. A control compound is included in each experiment.
The solutions for each batch of compounds are combined into two groups (protein-free and protein-containing), then cassette analysed by LC-MS/MS using two sets of calibration standards for protein-free (7 points) and protein-containing solutions (6 points).

T1 sequence (P03420 26-109): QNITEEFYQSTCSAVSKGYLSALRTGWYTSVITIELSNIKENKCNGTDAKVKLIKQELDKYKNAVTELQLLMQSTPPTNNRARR
T1 sequence (P03420 137-574): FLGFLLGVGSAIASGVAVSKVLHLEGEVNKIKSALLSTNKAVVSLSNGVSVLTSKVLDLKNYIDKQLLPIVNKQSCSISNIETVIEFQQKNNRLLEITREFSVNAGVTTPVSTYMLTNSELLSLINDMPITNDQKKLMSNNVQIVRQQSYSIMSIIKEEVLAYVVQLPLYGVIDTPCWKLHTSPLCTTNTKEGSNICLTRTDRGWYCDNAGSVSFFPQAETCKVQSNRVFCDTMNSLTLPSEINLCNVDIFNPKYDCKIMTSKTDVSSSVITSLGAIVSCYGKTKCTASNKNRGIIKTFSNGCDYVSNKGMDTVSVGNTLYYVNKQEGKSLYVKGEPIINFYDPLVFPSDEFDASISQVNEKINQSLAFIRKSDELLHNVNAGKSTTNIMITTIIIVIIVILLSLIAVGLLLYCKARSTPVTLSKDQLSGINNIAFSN

Compound	pIC50 (RSV fusion (A2_F))	bioavailability ([1]; male, Sprague Dawley, plasma, rats, 1 mg/kg (IV) and 5 mg/kg (PO), Comparative Example 3, read-out: Bioavailability (Table 6)) [%]	Vd ([1]; male, Sprague Dawley, plasma, rats, Comparative Example 3, read-out: Volume of distribution (Table 6)) [L/kg]	Tmax ([1]; male, Sprague Dawley, plasma, rats, 5 mg/kg (PO), Comparative Example 3, read-out: Tmax PO (Table 6)) [h]	half-life at 3 μM ([2]; Comparative Example 2, read-out: Liver Microsomal Stability T1/2, human (Table 5)) [h]	IC90 (RSV fusion (A2_F); HEK293T/17, read-out: RSV Fusion Assay IC90) [nM]	fraction unbound at 5 μM [3]	bioavailability ([1]; in vivo, male Sprague Dawley rats, 1 mg/kg (IV) and 10 mg/kg (PO), read-out: Bioavailability) [%]	Vd ([1]; in vivo, male Sprague Dawley rats, read-out: Volume of distribution) [L/kg]	Tmax ([1]; in vivo, male Sprague Dawley rats, 10 mg/kg (PO), read-out: Tmax PO) [h]	half-life at 3 μM ([2]; 3 μM compound, read-out: Liver Microsomal Stability T1/2, human) [h]
CC(C)CCn1c(CN2C(=O)C3(CC3)c3ccccc32)nc2cc(CN)ccc21 [RV039, 1′-((5-(aminomethyl)-1-isopentyl-1H-benzo[d]imidazol-2-yl)methyl)spiro[cyclopropane-1,3′-indolin]-2′-one, reference compound]	8.00	4.5	47	7.3	0.0833						
NCc1ccc2c(c1)nc(CN1C(=O)C3(CC3)c3ccc(F)cc31)n2CCCC(F)(F)F [Example 1, 1′-{[5-(Aminomethyl)-1-(4,4,4-trifluorobutyl)-1H-1,3-benzodiazol-2-yl]methyl}-6′-fluoro-1′,2′-dihydrospiro[cyclopropane-1,3′-indole]-2′-one]	8.96					9.4	0.67	42	22	2.7	0.533

Source: patent US10106539B2, “Spiro-indolines for the treatment and prophylaxis of respiratory syncytial virus infection (RSV)” (REVIRAL LIMITED, priority 2014, dated 2018)
